Measurements: patent publication US20230146455A1, “TREATMENT OF INFLAMMATORY DISEASES WITH PEPTIDES AND PHARMACEUTICAL COMPOSITIONS” (Yuyu Pharma, Inc., priority 2020, published 2023)
Several values for one entry are separate records, joined by “and”; a condition that tells them apart may be missing. Equal values may be shown once. Where a SMILES comes first, the peptide text is derived from it. [ ]: non-standard residue; d: D form. Hyp = O=C(O)[C@@H]1C[C@@H](O)CN1

Key:
IFN-gamma = test: Example 9 Luminex, LPS hPBMCs: IFN-gamma; format: cell-based, human
Protocol: (§1) Treatment Human PBMCs were pretreated with YY-101, YDE-011 and YDE-043 or reference compound; Xiidra® at various concentration (ranging from 1 nM to 100 uM) for 2 h before stimulation. An equal volume of 0.5% DMSO was used as a vehicle control. Then, the cells were treated with LPS at 5 ug/ml. The supernatants from treated cells were harvested at 24 h and placed in a 96 well for Luminex cytokine & chemokine profiling using a Luminex 200 multiplex assay (Luminex; R&D system, USA).
(§2) The main study arm with triplicate wells per group in a 24-well plate: • 1. Blank • 2. PBMC: 0.5% DMSO • 3. PBMC+LPS (5 ug/ml) • 4. PBMC+YY-101 100 uM • 5. PBMC+YY-101 10 uM • 6. PBMC+YY-101 1 uM • 7. PBMC+YY-101 0.1 uM • 8. PBMC+YY-101 0.01 uM • 9. PBMC+LPS (5 ug/ml)+Xiidra®100 uM • 10. PBMC+LPS (5 ug/ml)+Xiidra® 10 uM • 11. PBMC+LPS (5 ug/ml)+Xiidra® 1 uM • 12. PBMC+LPS (5 ug/ml)+Xiidra®0.1 uM • 13. PBMC+LPS (5 ug/ml)+Xiidra®0.01 uM • 14. PBMC+LPS (5 ug/ml)+Xiidra®0.001 uM • 15. PBMC+LPS (5 ug/ml)+YY-101 100 uM • 16. PBMC+LPS (5 ug/ml)+YY-101 10 uM • 17. PBMC+LPS (5 ug/ml)+YY-101 1 uM • 18. PBMC+LPS (5 ug/ml)+YY-101 0.1 uM • 19. PBMC+LPS (5 ug/ml)+YY-101 0.01 uM • 20. PBMC+LPS (5 ug/ml)+YY-101 0.001 uM • 21. PBMC+LPS (5 ug/ml)+YDE-011 100 uM • 22. PBMC+LPS (5 ug/ml)+YDE-011 10 uM • 23. PBMC+LPS (5 ug/ml)+YDE-011 1 uM • 24. PBMC+LPS (5 ug/ml)+YDE-011 0.1 uM • 25. PBMC+LPS (5 ug/ml)+YDE-011 0.01 uM • 26. PBMC+LPS (5 ug/ml)+YDE-011 0.001 uM • 27. PBMC+LPS (5 ug/ml)+YDE-043 100 uM • 28. PBMC+LPS (5 ug/ml)+YDE-043 10 uM • 29. PBMC+LPS (5 ug/ml)+YDE-043 1 uM • 30. PBMC+LPS (5 ug/ml)+YDE-043 0.1 uM • 31. PBMC+LPS (5 ug/ml)+YDE-043 0.01 uM • 32. PBMC+LPS (5 ug/ml)+YDE-043 0.001 uM
(§3) Multiplex assay was used to measure 30 cytokines and chemokines. The 1:2, 1:10 and 1:200 diluted cell supernatant and serial dilution of the standard were dispensed into a 96 well plate at 50 ul/well. Then, the pre-mixed cocktail of antibody-coated magnetic beads was dispensed at 50 ul/well and incubated at room temperature for 2 h in a horizontal orbital microplate shaker at 800±500 rpm. The beads were washed using a magnetic device to prevent loss. The biotin-antibody was dispensed in 50 ul of each well and incubated at room temperature for 1 h in a shaker at 800±500 rpm. After washing, streptavidin-PE was added at 50 ul/well and incubated at room temperature for 30 min in a shaker under the same conditions. Finally, after washing, wash buffer (100 ul/well) was added to the plate and incubated in a shaker for 2 min. The Luminex™ 200 setting were set according to the manufacturer's protocol. The data was calculated with a standard five-parameter logistic nonlinear regression analysis of the data (xPonent software 4.2, USA). The levels of cytokine/chemokine are normalized to the live cell counts (1×10^5 cells/mL) and presented as concentrations per mL (pg/mL or ng/mL).

TIMP-1 = test: Example 9 Luminex, LPS hPBMCs: TIMP-1; format: cell-based, human; conditions: PBMC + LPS(5 ug/ml)
Protocol: as §1, §2, §3

[1] = PBMC + LPS(5 ug/ml) + test article 0.001 uM, Mean
[2] = PBMC + LPS(5 ug/ml) + test article 0.001 uM, single replicates
[3] = PBMC + LPS(5 ug/ml) + test article 0.01 uM, Mean
[4] = PBMC + LPS(5 ug/ml) + test article 0.01 uM, single replicates
[5] = PBMC + LPS(5 ug/ml) + test article 0.1 uM, Mean
[6] = PBMC + LPS(5 ug/ml) + test article 0.1 uM, single replicates
[7] = PBMC + LPS(5 ug/ml) + test article 1 uM, Mean
[8] = PBMC + LPS(5 ug/ml) + test article 1 uM, single replicates
[9] = PBMC + LPS(5 ug/ml) + test article 10 uM, Mean
[10] = PBMC + LPS(5 ug/ml) + test article 10 uM, single replicates
[11] = PBMC + LPS(5 ug/ml) + test article 100 uM, Mean
[12] = PBMC + LPS(5 ug/ml) + test article 100 uM, single replicates
[13] = test article 0.001 uM, single replicates
[14] = test article 0.01 uM, single replicates
[15] = test article 0.1 uM, single replicates
[16] = test article 1 uM, single replicates
[17] = test article 10 uM, single replicates
[18] = test article 100 uM, single replicates

SMILES: CC(C)C[C@H](NC(=O)[C@H](CCC(N)=O)NC(=O)CNC(=O)[C@@H]1C[C@@H](O)CN1)C(=O)NCC(=O)O [YDE-043] (H-[Hyp]GQLG-OH; N-terminus and C-terminus assumed)
- Concentration (IFN-gamma) (IFN-gamma; [1]): 861.2 pg/mL
- conc/live cell (IFN-gamma) (IFN-gamma; [1]): 174.1 pg/10^5
- Concentration (IFN-gamma) (IFN-gamma; [2]): 863.3 pg/mL and 945.2 pg/mL and 774.9 pg/mL
- conc/live cell (IFN-gamma) (IFN-gamma; [2]): 196.2 pg/10^5 and 157.5 pg/10^5 and 168.5 pg/10^5
- Concentration (IFN-gamma) (IFN-gamma; [3]): 841.6 pg/mL
- conc/live cell (IFN-gamma) (IFN-gamma; [3]): 161.9 pg/10^5
- Concentration (IFN-gamma) (IFN-gamma; [4]): 857.6 pg/mL and 792.3 pg/mL and 874.8 pg/mL
- conc/live cell (IFN-gamma) (IFN-gamma; [4]): 190.6 pg/10^5 and 120.0 pg/10^5 and 175.0 pg/10^5
- Concentration (IFN-gamma) (IFN-gamma; [5]): 797.8 pg/mL
- conc/live cell (IFN-gamma) (IFN-gamma; [5]): 148.8 pg/10^5
- Concentration (IFN-gamma) (IFN-gamma; [6]): 892.0 pg/mL and 628.5 pg/mL and 872.9 pg/mL
- conc/live cell (IFN-gamma) (IFN-gamma; [6]): 178.4 pg/10^5 and 112.2 pg/10^5 and 155.9 pg/10^5
- Concentration (IFN-gamma) (IFN-gamma; [7]): 852.5 pg/mL
- conc/live cell (IFN-gamma) (IFN-gamma; [7]): 162.3 pg/10^5
- Concentration (IFN-gamma) (IFN-gamma; [8]): 734.2 pg/mL and 834.6 pg/mL and 988.7 pg/mL
- conc/live cell (IFN-gamma) (IFN-gamma; [8]): 126.6 pg/10^5 and 173.9 pg/10^5 and 186.5 pg/10^5
- Concentration (IFN-gamma) (IFN-gamma; [9]): 840.3 pg/mL
- conc/live cell (IFN-gamma) (IFN-gamma; [9]): 155.7 pg/10^5
- Concentration (IFN-gamma) (IFN-gamma; [10]): 828.9 pg/mL and 826.9 pg/mL and 865.3 pg/mL
- conc/live cell (IFN-gamma) (IFN-gamma; [10]): 159.4 pg/10^5 and 153.1 pg/10^5 and 154.5 pg/10^5
- Concentration (IFN-gamma) (IFN-gamma; [11]): 462.3 pg/mL
- conc/live cell (IFN-gamma) (IFN-gamma; [11]): 73.4 pg/10^5
- Concentration (IFN-gamma) (IFN-gamma; [12]): 480.6 pg/mL and 444.0 pg/mL
- conc/live cell (IFN-gamma) (IFN-gamma; [12]): 77.5 pg/10^5 and 69.4 pg/10^5
- TIMP-1 Concentration (TIMP-1; test article 0.001 uM, Mean): 2001.5 pg/mL
- TIMP-1 MFI (TIMP-1; test article 0.001 uM, Mean): 1096.8
- TIMP-1 conc/live cell (TIMP-1; test article 0.001 uM, Mean): 406.7 pg/10^5
- TIMP-1 Concentration (TIMP-1; [13]): 1887.3 pg/mL and 2046.6 pg/mL and 2070.5 pg/mL
- TIMP-1 MFI (TIMP-1; [13]): 1014.0 and 1129.5 and 1147.0
- TIMP-1 conc/live cell (TIMP-1; [13]): 428.9 pg/10^5 and 341.1 pg/10^5 and 450.1 pg/10^5
- TIMP-1 Concentration (TIMP-1; test article 0.01 uM, Mean): 1986.7 pg/mL
- TIMP-1 MFI (TIMP-1; test article 0.01 uM, Mean): 1085.8
- TIMP-1 conc/live cell (TIMP-1; test article 0.01 uM, Mean): 380.0 pg/10^5
- TIMP-1 Concentration (TIMP-1; [14]): 2007.5 pg/mL and 1991.7 pg/mL and 1960.7 pg/mL
- TIMP-1 MFI (TIMP-1; [14]): 1101.0 and 1089.5 and 1067.0
- TIMP-1 conc/live cell (TIMP-1; [14]): 446.1 pg/10^5 and 301.8 pg/10^5 and 392.1 pg/10^5
- TIMP-1 Concentration (TIMP-1; test article 0.1 uM, Mean): 1829.5 pg/mL
- TIMP-1 MFI (TIMP-1; test article 0.1 uM, Mean): 972.8
- TIMP-1 conc/live cell (TIMP-1; test article 0.1 uM, Mean): 339.9 pg/10^5
- TIMP-1 Concentration (TIMP-1; [15]): 1850.4 pg/mL and 1718.3 pg/mL and 1919.9 pg/mL
- TIMP-1 MFI (TIMP-1; [15]): 987.5 and 893.5 and 1037.5
- TIMP-1 conc/live cell (TIMP-1; [15]): 370.1 pg/10^5 and 306.8 pg/10^5 and 342.8 pg/10^5
- TIMP-1 Concentration (TIMP-1; test article 1 uM, Mean): 1838.3 pg/mL
- TIMP-1 MFI (TIMP-1; test article 1 uM, Mean): 979.0
- TIMP-1 conc/live cell (TIMP-1; test article 1 uM, Mean): 348.3 pg/10^5
- TIMP-1 Concentration (TIMP-1; [16]): 1928.2 pg/mL and 1809.9 pg/mL and 1776.9 pg/mL
- TIMP-1 MFI (TIMP-1; [16]): 1043.5 and 958.5 and 935.0
- TIMP-1 conc/live cell (TIMP-1; [16]): 332.5 pg/10^5 and 377.1 pg/10^5 and 335.3 pg/10^5
- TIMP-1 Concentration (TIMP-1; test article 10 uM, Mean): 1844.9 pg/mL
- TIMP-1 MFI (TIMP-1; test article 10 uM, Mean): 983.7
- TIMP-1 conc/live cell (TIMP-1; test article 10 uM, Mean): 342.1 pg/10^5
- TIMP-1 Concentration (TIMP-1; [17]): 1853.9 pg/mL and 1912.3 pg/mL and 1768.4 pg/mL
- TIMP-1 MFI (TIMP-1; [17]): 990.0 and 1032.0 and 929.0
- TIMP-1 conc/live cell (TIMP-1; [17]): 356.5 pg/10^5 and 354.1 pg/10^5 and 315.8 pg/10^5
- TIMP-1 Concentration (TIMP-1; test article 100 uM, Mean): 2156.3 pg/mL
- TIMP-1 MFI (TIMP-1; test article 100 uM, Mean): 1210.3
- TIMP-1 conc/live cell (TIMP-1; test article 100 uM, Mean): 342.6 pg/10^5
- TIMP-1 Concentration (TIMP-1; [18]): 2247.5 pg/mL and 2065.1 pg/mL
- TIMP-1 MFI (TIMP-1; [18]): 1277.5 and 1143.0
- TIMP-1 conc/live cell (TIMP-1; [18]): 362.5 pg/10^5 and 322.7 pg/10^5
